Reference: PubChem BioAssay AID1963873 (Molecular Pharmacology Branch, DTP, NCI, 2024)

Test system: 276233-004-R-J1-PDC KRAS spheroids with HUVEC/MSC, viability
Assay: Anticancer human tumor 276233-004-R-J1-PDC patient-derived colon adenocarcinoma cell line growth inhibition [KRAS2]
Conditions: for IC50: curve of first compound; for viability, T/C: stronger effect = lower value
Method in brief: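 Combination screen of spheroid viability in tumor-cell co-cultures with endothelial (HUVEC) and mesenchymal stem cell stroma. Each agent was tested in half-log dilutions, topping at clinical Cmax or at 10 microM without a known Cmax.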

[1] = second compound 0.0316 µM, first compound 0.000316 µM
[2] = second compound 0.0316 µM, first compound 0.001 µM
[3] = second compound 0.0316 µM, first compound 0.00316 µM
[4] = second compound 0.0316 µM, first compound 0.01 µM
[5] = second compound 0.0316 µM, first compound 0.0316 µM
[6] = second compound 0.1 µM, first compound 0.000316 µM
[7] = second compound 0.1 µM, first compound 0.001 µM
[8] = second compound 0.1 µM, first compound 0.00316 µM
[9] = second compound 0.1 µM, first compound 0.01 µM
[10] = second compound 0.1 µM, first compound 0.0316 µM
[11] = second compound 0.316 µM, first compound 0.000316 µM
[12] = second compound 0.316 µM, first compound 0.001 µM
[13] = second compound 0.316 µM, first compound 0.00316 µM
[14] = second compound 0.316 µM, first compound 0.01 µM
[15] = second compound 0.316 µM, first compound 0.0316 µM
[16] = second compound 1 µM, first compound 0.000316 µM
[17] = second compound 1 µM, first compound 0.001 µM
[18] = second compound 1 µM, first compound 0.00316 µM
[19] = second compound 1 µM, first compound 0.01 µM
[20] = second compound 1 µM, first compound 0.0316 µM
[21] = second compound 3.16 µM, first compound 0.000316 µM
[22] = second compound 3.16 µM, first compound 0.001 µM
[23] = second compound 3.16 µM, first compound 0.00316 µM
[24] = second compound 3.16 µM, first compound 0.01 µM
[25] = second compound 3.16 µM, first compound 0.0316 µM
[26] = second compound 0.0316 µM, first compound 0.1 µM
[27] = second compound 0.1 µM, first compound 0.1 µM
[28] = second compound 0.316 µM, first compound 0.1 µM
[29] = second compound 1 µM, first compound 0.1 µM
[30] = second compound 3.16 µM, first compound 0.1 µM
[31] = second compound 0.0316 µM, first compound 0.316 µM
[32] = second compound 0.0316 µM, first compound 1 µM
[33] = second compound 0.0316 µM, first compound 3.16 µM
[34] = second compound 0.0316 µM, first compound 10 µM
[35] = second compound 0.1 µM, first compound 0.316 µM
[36] = second compound 0.1 µM, first compound 1 µM
[37] = second compound 0.1 µM, first compound 3.16 µM
[38] = second compound 0.1 µM, first compound 10 µM
[39] = second compound 0.316 µM, first compound 0.316 µM
[40] = second compound 0.316 µM, first compound 1 µM
[41] = second compound 0.316 µM, first compound 3.16 µM
[42] = second compound 0.316 µM, first compound 10 µM
[43] = second compound 1 µM, first compound 0.316 µM
[44] = second compound 1 µM, first compound 1 µM
[45] = second compound 1 µM, first compound 3.16 µM
[46] = second compound 1 µM, first compound 10 µM
[47] = second compound 3.16 µM, first compound 0.316 µM
[48] = second compound 3.16 µM, first compound 1 µM
[49] = second compound 3.16 µM, first compound 3.16 µM
[50] = second compound 3.16 µM, first compound 10 µM
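Also: cells exposed to agents for seven days before viability read.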
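For viability, T/C in this document: 100% = DMSO vehicle control wells and lower values mean fewer viable cells.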

In the case of `CC(=O)Nc1cccc(-n2c(=O)n(C3CC3)c(=O)c3c(Nc4ccc(I)cc4F)n(C)c(=O)c(C)c32)c1` + C=CC(=O)N1CCN(c2nc(OCC3CCCN3C)nc3c2CCN(c2cccc4cccc(C)c24)C3)CC1CC#N, the IC50 (second compound 0.0316 µM) is reported as 7.53 nM, the IC50 (second compound 0.1 µM) is reported as 9.05 nM and the IC50 (second compound 0.316 µM) is reported as 4.73 nM. For the same molecule, the IC50 (second compound 1 µM) was 2.49 nM, the IC50 (second compound 3.16 µM) was 0.141 nM and the viability, T/C (second compound 0.0316 µM, first compound 0.0001 µM) was 79.5%. The viability, T/C [1] was 92.4%, the viability, T/C [2] was 81.2% and the viability, T/C [3] was 66.9%. It also gave a viability, T/C [4] of 44.9%, a viability, T/C [5] of 16.8% and a viability, T/C (second compound 0.1 µM, first compound 0.0001 µM) of 82.2%. The viability, T/C [6] was 86.3%, the viability, T/C [7] was 72.8% and the viability, T/C [8] was 63.1%. For the same molecule, the viability, T/C [9] was 50.4%, the viability, T/C [10] was 22.6% and the viability, T/C (second compound 0.316 µM, first compound 0.0001 µM) was 76.1%. For the same molecule, the viability, T/C [11] was 83.7%, the viability, T/C [12] was 61.6% and the viability, T/C [13] was 64.7%. The viability, T/C [14] was 31.5%, the viability, T/C [15] was 10% and the viability, T/C (second compound 1 µM, first compound 0.0001 µM) was 93.3%. It also gave a viability, T/C [16] of 95.9%, a viability, T/C [17] of 60.6% and a viability, T/C [18] of 47%. For the same molecule, the viability, T/C [19] was 25.4%, the viability, T/C [20] was 7% and the viability, T/C (second compound 3.16 µM, first compound 0.0001 µM) was 57.5%. It also gave a viability, T/C [21] of 32.3%, a viability, T/C [22] of 16.7% and a viability, T/C [23] of 14.7%. For the same molecule, the viability, T/C [24] was 4.17% and the viability, T/C [25] was 3.27%.

In the case of `CN(C)C/C=C/C(=O)Nc1cc2c(Nc3ccc(F)c(Cl)c3)ncnc2cc1O[C@H]1CCOC1` + C=CC(=O)N1CCN(c2nc(OCC3CCCN3C)nc3c2CCN(c2cccc4cccc(C)c24)C3)CC1CC#N, the IC50 (second compound 0.0316 µM) is reported as over 100 nM, the IC50 (second compound 0.1 µM) is reported as over 100 nM and the IC50 (second compound 0.316 µM) is reported as over 100 nM. It also gave an IC50 (second compound 1 µM) of over 100 nM, an IC50 (second compound 3.16 µM) of 0.902 nM and a viability, T/C [1] of 112%. It also gave a viability, T/C [2] of 114%, a viability, T/C [3] of 91.3% and a viability, T/C [4] of 102%. The viability, T/C [5] was 97.4%, the viability, T/C [26] was 86.3% and the viability, T/C [6] was 116%. For the same molecule, the viability, T/C [7] was 93.8%, the viability, T/C [8] was 91.3% and the viability, T/C [9] was 85%. It also gave a viability, T/C [10] of 88%, a viability, T/C [27] of 85.7% and a viability, T/C [11] of 87%. The viability, T/C [12] was 110%, the viability, T/C [13] was 91.9% and the viability, T/C [14] was 78.3%. The viability, T/C [15] was 81.5%, the viability, T/C [28] was 72.2% and the viability, T/C [16] was 84.8%. For the same molecule, the viability, T/C [17] was 78.8%, the viability, T/C [18] was 70.5% and the viability, T/C [19] was 83.6%. The viability, T/C [20] was 84.2%, the viability, T/C [29] was 78.7% and the viability, T/C [21] was 67.5%. The viability, T/C [22] was 52.7%, the viability, T/C [23] was 37.8% and the viability, T/C [24] was 27.6%. The viability, T/C [25] was 53.2% and the viability, T/C [30] was 47.7%.

With `COC(=O)c1ccc2c(C(=Nc3ccc(N(C)C(=O)CN4CCN(C)CC4)cc3)c3ccccc3)c(O)[nH]c2c1` + C=CC(=O)N1CCN(c2nc(OCC3CCCN3C)nc3c2CCN(c2cccc4cccc(C)c24)C3)CC1CC#N the IC50 (second compound 0.0316 µM) was over 10000 nM, the IC50 (second compound 0.1 µM) was over 10000 nM and the IC50 (second compound 0.316 µM) was over 10000 nM. It also gave an IC50 (second compound 1 µM) of over 10000 nM, an IC50 (second compound 3.16 µM) of under 31.6 nM and a viability, T/C [5] of 86.4%. The viability, T/C [26] was 95.1%, the viability, T/C [31] was 77.5% and the viability, T/C [32] was 83.6%. For the same molecule, the viability, T/C [33] was 81.8%, the viability, T/C [34] was 93.2% and the viability, T/C [10] was 77.4%. It also gave a viability, T/C [27] of 65.8%, a viability, T/C [35] of 59.2% and a viability, T/C [36] of 71.7%. The viability, T/C [37] was 89.7%, the viability, T/C [38] was 64% and the viability, T/C [15] was 83.6%. It also gave a viability, T/C [28] of 87.5%, a viability, T/C [39] of 76.2% and a viability, T/C [40] of 77.1%. For the same molecule, the viability, T/C [41] was 78.6%, the viability, T/C [42] was 70% and the viability, T/C [20] was 88%. For the same molecule, the viability, T/C [29] was 78.8%, the viability, T/C [43] was 69.8% and the viability, T/C [44] was 62.1%. For the same molecule, the viability, T/C [45] was 69.1%, the viability, T/C [46] was 65.7% and the viability, T/C [25] was 39.6%. For the same molecule, the viability, T/C [30] was 46.6%, the viability, T/C [47] was 34.4% and the viability, T/C [48] was 26.9%. It also gave a viability, T/C [49] of 18.7% and a viability, T/C [50] of 3.45%.

`O=C(c1cc(Cc2n[nH]c(=O)c3ccccc23)ccc1F)N1CCN(C(=O)C2CC2)CC1` + C=CC(=O)N1CCN(c2nc(OCC3CCCN3C)nc3c2CCN(c2cccc4cccc(C)c24)C3)CC1CC#N gave an IC50 (second compound 0.0316 µM) of over 10000 nM, an IC50 (second compound 0.1 µM) of over 10000 nM and an IC50 (second compound 0.316 µM) of over 10000 nM. It also gave an IC50 (second compound 1 µM) of over 10000 nM, an IC50 (second compound 3.16 µM) of under 31.6 nM and a viability, T/C [5] of 114%. For the same molecule, the viability, T/C [26] was 109%, the viability, T/C [31] was 101% and the viability, T/C [32] was 93.9%. For the same molecule, the viability, T/C [33] was 91.2%, the viability, T/C [34] was 82.5% and the viability, T/C [10] was 98.1%. The viability, T/C [27] was 109%, the viability, T/C [35] was 100% and the viability, T/C [36] was 87%. It also gave a viability, T/C [37] of 87.1%, a viability, T/C [38] of 83.1% and a viability, T/C [15] of 110%. It also gave a viability, T/C [28] of 94.8%, a viability, T/C [39] of 93.4% and a viability, T/C [40] of 68.7%. It also gave a viability, T/C [41] of 83.4%, a viability, T/C [42] of 76.3% and a viability, T/C [20] of 81.5%. It also gave a viability, T/C [29] of 89.8%, a viability, T/C [43] of 110% and a viability, T/C [44] of 87.6%. For the same molecule, the viability, T/C [45] was 82.8%, the viability, T/C [46] was 85% and the viability, T/C [25] was 55.4%. For the same molecule, the viability, T/C [30] was 37.9%, the viability, T/C [47] was 57.2% and the viability, T/C [48] was 43.9%. For the same molecule, the viability, T/C [49] was 44.9% and the viability, T/C [50] was 37.1%.
